Converted amounts (≈) assume the structure as drawn. Where two headings read alike, the source gives them in different places. *1 amine or outer side, *2 acyl side, *3 side chain or, on linkers, in order; H or OH if unused. Where a SMILES comes first, the peptide text is derived from it. Bridges are numbered along the chain shown (N, C = ends). [ ]: non-standard residue; d: D form. The star is where a group is joined. NH(1,3-benzodioxol-5-yl) = c1cc2c(cc1N*)OCO2; Phe(3,5-F2) = N[C@@H](Cc1cc(F)cc(F)c1)C(=O)O; Morpholine(3S-CO) = O=C(O)[C@@H]1COCCN1; NH(4-Cl-2-F-phenyl) = Fc1cc(Cl)ccc1N*; Pro(4R-Me) = C[C@H]1CN[C@H](C(=O)O)C1; NH(3,4-Me2-phenyl) = Cc1ccc(N*)cc1C; Hyp = O=C(O)[C@@H]1C[C@@H](O)CN1; NH(4-Et-phenyl) = CCc1ccc(N*)cc1; NH(4-Me-phenyl) = Cc1ccc(N*)cc1; aThr = C[C@H](O)[C@H](N)C(=O)O; Pip = O=C(O)[C@@H]1CCCCN1; X2 = CN1CCc2ccc(N*)cc21; CO = O=C([*:1])[*:2]

Holding throughout (type): cell-based
For test [1], the system named is Streptococcus pneumoniae, R6. As to the kind of experiment: Minimal inhibitory concentration assay. Particulars: read-out: Minimal Inhibitory Concentrations S. pneumoniae R6. In outline: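 Microbroth dilution with two-fold serial compound dilutions in broth, incubated aerobically overnight at 37° C. MIC taken as the lowest concentration preventing bacterial growth.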

In test [2] the test system is Staphylococcus aureus, USA 300. As to the kind of experiment: Minimal inhibitory concentration assay. Conditions: USA300, read-out: Minimal Inhibitory Concentrations S. aureus USA 300. Summed up: (§1)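 Paired MICs against USA 300 and its ClpP-inactivated counterpart test whether killing runs through ClpP. All strains: two-fold broth dilutions from 200 μM final, ~10^5 cfu/mL inoculum, overnight at 37 °C in air, lowest growth-free concentration read by eye.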

For test [3], the system named is Staphylococcus aureus, USA 300 wherein ClpP is inactivated. The experiment in a line: Minimal inhibitory concentration assay. In outline: as §1
In test [4] the test system is Enterococcus faecalis, ATCC 33186. As to the kind of experiment: Minimal inhibitory concentration assay (microbroth dilution). Summed up: as §1
In general terms: Dilution methods test growth across graded concentrations, often in twofold steps.

Where [5] appears, read: Enterococcus faecalis, ATCC33186, read-out: Minimal Inhibitory Concentrations E. faecalis ATCC 33186.
Where [6] appears, read: Enterococcus faecalis, ATCC33186; read-out: Minimal Inhibitory Concentrations E. faecalis ATCC 33186.

As to `C[C@@H]1C[C@H]2C(=O)OC[C@H](NC(=O)[C@H](Cc3ccccc3)NC(=O)Nc3ccc4c(c3)OCO4)C(=O)N3CCC[C@H]3C(=O)N3CCCC[C@H]3C(=O)N[C@@H](C)C(=O)N2C1` [Compound 194, (S)-2-(3-(benzo[d][1,3]dioxol-5-yl)ureido)-N-((2R,6S,8aS,14aS,20S,23aS)-2,6-dimethyl-5,8,14,19,23-pentaoxooctadecahydro-1H,5H,14H,19H-pyrido[2,1-i]dipyrrolo[2,1-c:2′,1′-l][1]oxa[4,7,10,13]tetraazacyclohexadecin-20-yl)-3-phenylpropanamide], the MIC in test [1] was under 0.2 µM.

Take `C[C@@H]1C[C@H]2C(=O)OC[C@H](NC(=O)[C@H](Cc3cc(F)cc(F)c3)NC(=O)Nc3ccc4c(c3)OCO4)C(=O)N3CCC[C@H]3C(=O)N3CCCC[C@H]3C(=O)N[C@@H](C)C(=O)N2C1` [Compound 195, (S)-2-(3-(benzo[d][1,3]dioxol-5-yl)ureido)-3-(3,5-difluorophenyl)-N-((2R,6S,8aS,14aS,20S,23aS)-2,6-dimethyl-5,8,14,19,23-pentaoxooctadecahydro-1H,5H,14H,19H-pyrido[2,1-i]dipyrrolo[2,1-c:2′,1′-l][1]oxa[4,7,10,13]tetraazacyclohexadecin-20-yl)propanamide]: the MIC in test [1] came to 0.1 µM (≈ 0.0824 µg/mL).

On to `Cc1ccc(NC(=O)N[C@@H](Cc2cc(F)cc(F)c2)C(=O)N[C@@H]2C(=O)N3C[C@H](O)C[C@H]3C(=O)N3CCOC[C@H]3C(=O)N[C@@H](C)C(=O)N3C[C@H](C)C[C@H]3C(=O)O[C@H]2C)cc1C` [Compound 215, (S)-3-(3,5-difluorophenyl)-2-(3-(3,4-dimethylphenyl)ureido)-N-((6aS,8R,12S,13S,15aS,17R,21S,23aS)-8-hydroxy-13,17,21-trimethyl-6,11,15,20,23-pentaoxooctadecahydro-6H,11H,15H-[1,4]oxazino[3,4-i]dipyrrolo[2,1-c:2′,1′-l][1]oxa[4,7,10,13]tetraazacyclohexadecin-12-yl)propanamide] ({NH(3,4-Me2-phenyl)-CO}-[Phe(3,5-F2)][aThr][Hyp][Morpholine(3S-CO)]A[Pro(4R-Me)]; ester 2-C), for which the MIC in test [2] was 0.8 µM (≈ 0.672 µg/mL); in test [1] it was under 0.2 µM.

Consider `Cc1ccc(NC(=O)N[C@@H](Cc2cc(F)cc(F)c2)C(=O)N[C@H]2COC(=O)[C@@H]3C[C@@H](C)CN3C(=O)[C@H](C)NC(=O)[C@@H]3COCCN3C(=O)[C@@H]3C[C@@H](O)CN3C2=O)cc1` [Compound 317, (S)-3-(3,5-difluorophenyl)-N-((6aS,8R,12S,15aS,17R,21S,23aS)-8-hydroxy-17,21-dimethyl-6,11,15,20,23-pentaoxooctadecahydro-6H,11H,15H-[1,4]oxazino[3,4-i]dipyrrolo[2,1-c:2′,1′-l][1]oxa[4,7,10,13]tetraazacyclohexadecin-12-yl)-2-(3-(p-tolyl)ureido)propanamide] ({NH(4-Me-phenyl)-CO}-[Phe(3,5-F2)]S[Hyp][Morpholine(3S-CO)]A[Pro(4R-Me)]; ester 2-C), for which the “Minimal Inhibitory Concentrations S. aureus USA 300 ΔClpP” value in test [3] amounted to 12.5 µM. The MIC amounted to 12.5 µM (≈ 10.1 µg/mL) in test [2] and 0.313 µM (≈ 0.254 µg/mL) in test [4] (setting [5]).

Consider `C[C@@H]1C[C@H]2C(=O)O[C@@H](C)[C@H](NC(=O)[C@H](Cc3cc(F)cc(F)c3)NC(=O)Nc3ccc4c(c3)OCO4)C(=O)N3C[C@H](O)C[C@H]3C(=O)N3CCOC[C@H]3C(=O)N[C@@H](C)C(=O)N2C1` [Compound 319, (S)-2-(3-(benzo[d][1,3]dioxol-5-yl)ureido)-3-(3,5-difluorophenyl)-N-((6aS,8R,12S,13S,15aS,17R,21S,23aS)-8-hydroxy-13,17,21-trimethyl-6,11,15,20,23-pentaoxooctadecahydro-6H,11H,15H-[1,4]oxazino[3,4-i]dipyrrolo[2,1-c:2′,1′-l][1]oxa[4,7,10,13]tetraazacyclo-hexadecin-12-yl)propanamide] ({NH(1,3-benzodioxol-5-yl)-CO}-[Phe(3,5-F2)][aThr][Hyp][Morpholine(3S-CO)]A[Pro(4R-Me)]; ester 2-C), for which the “Minimal Inhibitory Concentrations S. aureus USA 300 ΔClpP” value in test [3] came out at 25 µM. In addition, the MIC in test [2] stood at 25 µM (≈ 21.4 µg/mL); in test [4] (setting [6]) it was 0.313 µM (≈ 0.268 µg/mL).

For `CCc1ccc(NC(=O)N[C@@H](Cc2cc(F)cc(F)c2)C(=O)N[C@@H]2C(=O)N3C[C@H](O)C[C@H]3C(=O)N3CCOC[C@H]3C(=O)N[C@@H](C)C(=O)N3C[C@H](C)C[C@H]3C(=O)O[C@H]2C)cc1` [Compound 320, (S)-3-(3,5-difluorophenyl)-2-(3-(4-ethylphenyl)ureido)-N-((6aS,8R,12S,13S,15aS,17R,21S,23aS)-8-hydroxy-13,17,21-trimethyl-6,11,15,20,23-pentaoxooctadecahydro-6H,11H,15H-[1,4]oxazino[3,4-i]dipyrrolo[2,1-c:2′,1′-l][1]oxa[4,7,10,13]-tetraazacyclohexadecin-12-yl)propanamide] ({NH(4-Et-phenyl)-CO}-[Phe(3,5-F2)][aThr][Hyp][Morpholine(3S-CO)]A[Pro(4R-Me)]; ester 2-C), in test [3], the “Minimal Inhibitory Concentrations S. aureus USA 300 ΔClpP” value was found to be 0.7812 µM. In addition, the MIC was determined as 0.781 µM (≈ 0.656 µg/mL) in test [2] and 0.078 µM (≈ 0.0655 µg/mL) in test [4] (setting [6]).

`C[C@@H]1C[C@H]2C(=O)O[C@@H](C)[C@H](NC(=O)[C@H](Cc3cc(F)cc(F)c3)NC(=O)Nc3ccc4c(c3)N(C)CC4)C(=O)N3CCC[C@H]3C(=O)N3CCCC[C@H]3C(=O)N[C@@H](C)C(=O)N2C1` [Compound 321, (S)-3-(3,5-difluorophenyl)-2-(3-(1-methylindolin-6-yl)ureido)-N-((2R,6S,8aS,14aS,20S,21S,23aS)-2,6,21-trimethyl-5,8,14,19,23-pentaoxooctadecahydro-1H,5H,14H,19H-pyrido[2,1-i]dipyrrolo[2,1-c:2′,1′-l][1]oxa[4,7,10,13]tetraazacyclo-hexadecin-20-yl)propanamide] ({X2-CO}-[Phe(3,5-F2)][aThr]P[Pip]A[Pro(4R-Me)]; ester 2-C): the “Minimal Inhibitory Concentrations S. aureus USA 300 ΔClpP” value in test [3] was under 0.098 µM. The values for the MIC in test [2] and in test [4] (setting [5]) were under 0.098 µM and 0.078 µM (≈ 0.0662 µg/mL), respectively.

On to `C[C@@H]1C[C@H]2C(=O)O[C@@H](C)[C@H](NC(=O)[C@H](Cc3cc(F)cc(F)c3)NC(=O)Nc3ccc(Cl)cc3F)C(=O)N3C[C@H](O)C[C@H]3C(=O)N3CCCC[C@H]3C(=O)N[C@@H](C)C(=O)N2C1` [Compound 329, (S)-2-(3-(4-chloro-2-fluorophenyl)ureido)-3-(3,5-difluorophenyl)-N-((2R,6S,8aS,14aS,16R,20S,21S,23aS)-16-hydroxy-2,6,21-trimethyl-5,8,14,19,23-pentaoxooctadecahydro-1H,5H,14H,19H-pyrido[2,1-i]dipyrrolo[2,1-c:2′,1′-l][1]oxa[4,7,10,13]tetraazacyclo-hexadecin-20-yl)propanamide] ({NH(4-Cl-2-F-phenyl)-CO}-[Phe(3,5-F2)][aThr][Hyp][Pip]A[Pro(4R-Me)]; ester 2-C), for which the “Minimal Inhibitory Concentrations S. aureus USA 300 ΔClpP” value in test [3] was determined as 50 µM. The MIC in test [2] and in test [4] (setting [6]) was 0.039 µM (≈ 0.0336 µg/mL) in each case.

The values above are taken from patent US10457707B2, “Substituted urea depsipeptide analogs as activators of the CLPP endopeptidase” (priority 2015, dated 2019).
